Measurements as given in patent publication US20220098201A1, “THE MONOHYDRATE OF ROGARATINIB HYDROCHLORIDE AND SOLID STATES THEREOF” (Bayer Aktiengesellschaft, priority 2019, published 2022).

Assays:
[1] = Solubility in water compared with free base; type: physicochemical; details: compared with the free base
[2] = Stability in brown glass bottle; type: physicochemical; details: for Assay calc. on dried substance / Ethanol / Material and colour / Sum of all organic impurities / Water: brown glass bottle
[3] = Slurry experiments of monohydrate (A) in various solvents; type: physicochemical
From the text: The residues were filtered off and dried at room temperature and ambient humidity. Reproducible preparation was not possible for all solid state forms.

[4] = Moisture sorption: storage at various humidities, thermogravimetric analysis; type: physicochemical; details: for Mass loss after storage / Modification after storage: 25° C., 12 months
Method: TGA thermograms were recorded using thermobalances (model TGA7 and Pyris 1) from Perkin-Elmer.
The measurements were performed with a heating rate of 10 Kmin^−1 using open platinum pans. Flow gas was nitrogen. There was no sample preparation.
Their moisture content was then determined by thermogravimetric analysis.

[5] = Storage of solid forms in closed vessels at 25° C. and 50° C.; type: physicochemical; details: for Modification after storage in closed vessels: 12 months, humidity not set
Bioavailability = details: stated as result of better solubility than the free base
[6] = Crystalline form (XRPD) in coated tablet during storage; type: physicochemical; details: see Table 5
Method: X-Ray diffraction patterns were recorded at room temperature using XRD-diffractometers X'Pert PRO (PANalytical) and STOE STADI-P (radiation Cu K alpha 1, wavelength 1.5406 Å). There was no sample preparation. All X-Ray reflections are quoted as °2θ (theta) values (peak maxima) with a resolution of ±0.2°.
Tablets with compound III were manufactured according to the method described above and an initial XRPD was recorded.

[7] = Hygroscopicity and chemical stability of the di-hydrochloride on standing in air; type: physicochemical

In the case of COCc1c(-c2cc3cc(C)cc(OC)c3s2)c2c(N)ncnn2c1CN1CCNC(=O)C1.Cl.O [Compound (III), 4-{[4-amino-6-(methoxymethyl)-5-(7-methoxy-5-methyl-1-benzothiophen-2-yl)pyrrolo[2,1-f][1,2,4]triazin-7-yl]methyl}piperazin-2-one hydrochloride hydrate], the solubility in water [1] is reported as “significantly better solubility in water”, the “Stability during storage over a long period of time” value [2] is reported as “very stable during storage” and the “Assay calc. on dried substance” value ([2]; 25° C./60% r.h., 3 months) is reported as 99.8%. The Ethanol ([2]; 25° C./60% r.h., 3 months) was 0.460%, the Material and colour ([2]; 25° C./60% r.h., 3 months) was “slightly grey-tinged solid” and the “Sum of all organic impurities” value ([2]; 25° C./60% r.h., 3 months) was 1.08%. For the same compound, the Water ([2]; 25° C./60% r.h., 3 months) was 3.9%, the “Assay calc. on dried substance” value ([2]; 25° C./60% r.h., 6 months) was 100.0% and the Ethanol ([2]; 25° C./60% r.h., 6 months) was 0.467%. The Material and colour ([2]; 25° C./60% r.h., 6 months) was “slightly grey-tinged solid”, the “Sum of all organic impurities” value ([2]; 25° C./60% r.h., 6 months) was 1.05% and the Water ([2]; 25° C./60% r.h., 6 months) was 3.5%. For the same compound, the “Assay calc. on dried substance” value ([2]; 25° C./60% r.h., 9 months) was 100.0%, the Ethanol ([2]; 25° C./60% r.h., 9 months) was 0.444% and the Material and colour ([2]; 25° C./60% r.h., 9 months) was “slightly grey-tinged solid”. For the same compound, the “Sum of all organic impurities” value ([2]; 25° C./60% r.h., 9 months) was 1.14%, the Water ([2]; 25° C./60% r.h., 9 months) was 3.5% and the “Assay calc. on dried substance” value ([2]; 25° C./60% r.h., 12 months) was 98.1%. The Ethanol ([2]; 25° C./60% r.h., 12 months) was 0.441%, the Material and colour ([2]; 25° C./60% r.h., 12 months) was “slightly grey-tinged solid” and the “Sum of all organic impurities” value ([2]; 25° C./60% r.h., 12 months) was 1.22%. The Water ([2]; 25° C./60% r.h., 12 months) was 3.6%, the “Assay calc. on dried substance” value ([2]; 25° C./60% r.h., 18 months) was 100.4% and the Ethanol ([2]; 25° C./60% r.h., 18 months) was 0.434%. For the same compound, the Material and colour ([2]; 25° C./60% r.h., 18 months) was “slightly grey-tinged solid”, the “Sum of all organic impurities” value ([2]; 25° C./60% r.h., 18 months) was 1.17% and the Water ([2]; 25° C./60% r.h., 18 months) was 3.6%. The “Assay calc. on dried substance” value ([2]; 25° C./60% r.h., 24 months) was 98.8%, the Ethanol ([2]; 25° C./60% r.h., 24 months) was 0.415% and the Material and colour ([2]; 25° C./60% r.h., 24 months) was “slightly grey-tinged solid”. For the same compound, the “Sum of all organic impurities” value ([2]; 25° C./60% r.h., 24 months) was 1.14%, the Water ([2]; 25° C./60% r.h., 24 months) was 3.5% and the “Assay calc. on dried substance” value ([2]; 40° C./75% r.h., 3 months) was 98.4%. The Ethanol ([2]; 40° C./75% r.h., 3 months) was 0.406%, the Material and colour ([2]; 40° C./75% r.h., 3 months) was “slightly grey-tinged solid” and the “Sum of all organic impurities” value ([2]; 40° C./75% r.h., 3 months) was 1.17%. The Water ([2]; 40° C./75% r.h., 3 months) was 3.6%, the “Assay calc. on dried substance” value ([2]; 40° C./75% r.h., 6 months) was 99.7% and the Ethanol ([2]; 40° C./75% r.h., 6 months) was 0.435%. The Material and colour ([2]; 40° C./75% r.h., 6 months) was “slightly grey-tinged solid”, the “Sum of all organic impurities” value ([2]; 40° C./75% r.h., 6 months) was 1.00% and the Water ([2]; 40° C./75% r.h., 6 months) was 3.4%. For the same compound, the “Assay calc. on dried substance” value ([2]; initial) was 100.3%, the Ethanol ([2]; initial) was 0.533% and the Material and colour ([2]; initial) was “slightly grey-tinged solid”. The “Sum of all organic impurities” value ([2]; initial) was 1.03%, the Water ([2]; initial) was 3.5% and the chemical stability ([2]; during storage for several years) was “chemically stable”. The Modification residue ([3]; slurry in 1,4-Dioxane, 25 ° C., stirring time 1 week) was “Monohydrate (A)”, the Modification residue ([3]; slurry in Acetonitrile/water (1:1), 25 ° C., stirring time 1 week) was “Monohydrate (A)” and the Modification residue ([3]; slurry in Ethanol, 25 ° C., stirring time 4 weeks) was “Monohydrate (A)”. The Modification residue ([3]; slurry in Ethanol/water (1:1), 25 ° C., stirring time 1 week) was “Monohydrate (A)”, the Modification residue ([3]; slurry in Isopropanol, 0 ° C., stirring time 1 week) was “Monohydrate (A)” and the Modification residue ([3]; slurry in Isopropanol, 25 ° C., stirring time 4 weeks) was “Monohydrate (A)”. The Modification residue ([3]; slurry in Methanol, 0 ° C., stirring time 2 weeks) was “¾-Hydrate (D)”, the Modification residue ([3]; slurry in Methanol, 0 ° C., stirring time 5 weeks) was “Dihydrate (B)” and the Modification residue ([3]; slurry in Methanol, 25 ° C., stirring time 1 week) was “Monohydrate (A)”. The Modification residue ([3]; slurry in Tetrahydrofurane/water (1:1), 25 ° C., stirring time 4 weeks) was “Monohydrate (A)”, the Modification residue ([3]; slurry in Toluene, 25 ° C., stirring time 4 weeks) was “Monohydrate (A)” and the “Mass loss after storage” value ([4]; 15% r. h.) was 3.7%. For the same compound, the Modification after storage ([4]; 15% r. h.) was “Monohydrate”, the “Mass loss after storage” value ([4]; 85% r. h.) was 3.7% and the Modification after storage ([4]; 85% r. h.) was “Monohydrate”. For the same compound, the “Mass loss after storage” value ([4]; 97% r. h.) was 3.7%, the Modification after storage ([4]; 97% r. h.) was “Monohydrate” and the Hygroscopicity ([4]; conclusion from moisture sorption tests, 12 month at 15%, 85% and 97% r.h.) was “not hygroscopic”. For the same compound, the uptake of water ([4]; stored for 12 month at 15% r.h., 85% r.h and 97% r.h.) was “no uptake of water”, the “Modification after storage in closed vessels” value ([5]; 25° C.) was “Monohydrate” and the “Modification after storage in closed vessels” value ([5]; 50° C.) was “Monohydrate”. For the same compound, the physical stability ([5]; Storage at 25 and 50° C. for 12 month) was “no changes in stability”, the bioavailability (Bioavailability) was “enhanced bioavailability” and the “Stability of the form in the tablet matrix” value [6] was “stable in the tablet matrix and does not change during storage”.

In the case of COCc1c(-c2cc3cc(C)cc(OC)c3s2)c2c(N)ncnn2c1CN1CCNC(=O)C1.Cl.O.O [Dihydrate (B)], the “Change of solid form during storage in a closed vessel” value ([5]; closed vessel, within two weeks) is reported as “transformed into the monohydrate” and the “Change of solid form of isolated residue” value ([5]; stored at room temperature, in the course of two weeks) is reported as “transformed into the Monohydrate”.

With COCc1c(-c2cc3cc(C)cc(OC)c3s2)c2c(N)ncnn2c1CN1CCNC(=O)C1.Cl.O.O.O [Trihydrate] the “Mass loss after storage” value ([4]; 85% r. h.) was 3.3%, the Modification after storage ([4]; 85% r. h.) was “Monohydrate*” and the “Mass loss after storage” value ([4]; 97% r. h.) was 6.0%. For the same compound, the Modification after storage ([4]; 97% r. h.) was “Monohydrate*”, the “Change of solid form during storage at high humidity” value ([4]; storage at high humidity) was “changed into the monohydrate” and the “Modification after storage in closed vessels” value ([5]; 25° C.) was “Trihydrate”.

For COCc1c(-c2cc3cc(C)cc(OC)c3s2)c2c(N)ncnn2c1CN1CCNC(=O)C1.Cl.Cl [di-hydrochloride, di-hydrochloride of 4-{[4-Amino-6-(methoxymethyl)-5-(7-methoxy-5-methyl-1-benzothiophen-2-yl)pyrrolo[2,1-f][1,2,4]triazin-7-yl]methyl}piperazin-2-one], the Hygroscopicity [7] was “very hydroscopic” and the chemical stability ([7]; on standing in the air) was “loses HCl on standing in the air”.
